We go through two compounds from ChEMBL document CHEMBL3232940, “TNF-α inhibition elicited by mansoins A and B, heterotrimeric flavonoids isolated from Mansoa hirsuta” (J Nat Prod, 2014).

The assay in a line: Antiinflammatory activity in human THP1 cells assessed as inhibition of LPS-induced TNF-alpha production preincubated for 3 hrs followed by LPS-challenge measured after overnight incubation by sandwich ELISA. In kind it is functional, cell-based. The note with it: THP-1.

With `O=C1C[C@@H](c2ccc(O)c(O[C@@H]3O[C@H](CO)[C@@H](O)[C@H](O)[C@H]3O)c2)Oc2c1c(O)c([C@@H](CCc1ccc(O)cc1)c1ccc(O)cc1O[C@@H]1O[C@H](CO)[C@@H](O)[C@H](O)[C@H]1O)c(O)c2[C@@H](CCc1ccc(O)cc1)c1ccc(O)cc1O[C@@H]1O[C@H](CO)[C@@H](O)[C@H](O)[C@H]1O`, the half-inhibitory concentration (IC50) was 48.1 µM. Under `O=C1C[C@@H](c2ccc(O)c(O)c2)Oc2c1c(O)c([C@@H](CCc1ccc(O)cc1)c1ccc(O)cc1O[C@@H]1O[C@H](CO)[C@@H](O)[C@H](O)[C@H]1O)c(O)c2[C@@H](CCc1ccc(O)cc1)c1ccc(O)cc1O[C@@H]1O[C@H](CO)[C@@H](O)[C@H](O)[C@H]1O` stands 20 µM.

A word on the IC50: it is the concentration needed to halve the response being measured.
